Laboratory results from patent US11744868B1, “Inonotus obliquus dextran, preparation method and application thereof” (Jilin Agricultural University, priority 2022, dated 2023).
Structures can show the parent of a compound that is named as a salt.

Legend:
[1] = system: AsPC-1 (human metastatic pancreatic adenocarcinoma cells) cells; test: CCK-8 cell viability of AsPC-1 cells; format: cell-based; details: for Cell vitality (%): 24 h, n = 3
Procedure: Therapeutic effects of two drugs, Inonotus Obliquus polysaccharide and gemcitabine hydrochloride, alone and in combination, on AsPC-1 (human metastatic pancreatic adenocarcinoma cells) cells are investigated respectively. Cell culture: AsPC-1 (human metastatic pancreatic adenocarcinoma cells) cells are resuscitated in culture flasks and incubated at 37° C. in a 5% CO2 incubator; the cells are adhered to the wall and then subjected to passaging or […] operations; inoculation: when the cells are in logarithmic growth phase, they are washed twice with PBS buffer (phosphate concentration 0.01 M, pH 7.2-7.4); the cells are digested by 1 mL of 0.25% trypsin-EDTA (ethylene diamine tetraacetic acid) for 1-2 min, then 2 mL of RPMI-1640 culture solution containing 10% fetal bovine serum and 1% of double antibodies (penicillin and streptomycin) is added to terminate the digestion, followed by centrifuging at 1,000 revolutions per minute (rpm) for 3 min; then the wall-adhered cells are completely blown down and enumerated by hemocytometer plates, where the cells are inoculated in an 96-well plate in an amount of 100 μL per well, with a controlled number of 5,000 cells per well, and incubated in an incubator for 24 h. CCK-8 experiment dosing: […] Calculation of cell viability for each group:Cell viability (%)=(ODsample−ODblank)×100/(ODcontrol−ODblank)

AsPC-1 cell = details: 0, 200 μg/mL, 400 μg/mL, 800 ng/mL; 24 h incubation; FIG. 9
Procedure: 1.2 experimental cell line AsPC-1 of human metastatic pancreatic cancer is purchased from American Type Culture Collection (ATCC);
2.1 human metastatic pancreatic cancer cells are cultured in RPMI-1640 culture medium (containing penicillin 100 U/mL, streptomycin 100 U/mL and 10% fetal bovine serum) at 37° C. in a 5% CO2 constant temperature incubator, and cells of logarithmic growth phase are taken for the experiment;

Nc1ccn([C@@H]2O[C@H](CO)[C@@H](O)C2(F)F)c(=O)n1 [gemcitabine hydrochloride, reference compound]
Cell vitality (%) ([1]; 0 μg/mL IOP1-1 + 20 μg/mL gemcitabine hydrochloride): 66.1 ± 5.49%

Inonotus Obliquus dextran [IOP1-1]
Cell vitality (%) ([1]; 400 μg/mL IOP1-1 + 0 μg/mL gemcitabine hydrochloride): 78.2 ± 2.24%
Cell vitality (%) ([1]; 800 μg/mL IOP1-1 + 0 μg/mL gemcitabine hydrochloride): 66.5 ± 4.12%
therapeutic effect on AsPC-1 tumor cells / tumor inhibition ([1]; summary in words of Table 2): excellent
mitochondrial membrane potential (AsPC-1 cell): decreases as the concentration of drug administered increases
